In brackets after ≈: the same amount, converted by molar mass. Read-outs that look alike come from different tables or passages of the source.
Experiments:
Type in all cases: cell-based
MSSA ATCC 29213 [1] = assay: Disk diffusion assay (zone of inhibition); conditions: Staphylococcus aureus; for zone of inhibition at 360 µg/disc: 360 μg in 5% P80, read-out: Zone diameter (mm ± SD); for zone of inhibition at 180 µg/disc: MSSA ATCC 29213, 180 μg oritavancin in 2.5% P80, read-out: Zone diameter
Source text: The study was designed to identify conditions that improve oritavancin diffusion in agar and consequently yield a zone diameter ≧15 mm for the CLSI quality control strain MSSA ATCC 25923. Excipients that increased the disk diffusion of oritavancin in agar relative to disks containing only oritavancin were identified and selected for further study. […] A prediffusion step at room temperature was introduced to maximize oritavancin diffusion prior to initiation of bacterial growth. In this step, the antimicrobial disks were placed on agar plates seeded with a bacterial isolate and incubated at room temperature for 3 hours. Plates were then incubated overnight at 37° C. Zone diameters around the disks in which bacterial growth was inhibited were measured with a ruler and reported in millimeters.
Ethanol-sterilized Whatman paper disks (6 mm diameter) were allowed to dry then impregnated with 20 microliters of oritavancin solution containing total amounts ranging from 90 to 360 micrograms. Disks were allowed to dry at room temperature for various times prior to use.
Bacterial suspensions were prepared and adjusted to an optical density of 0.1 at 600 nm. Standard cation-adjusted Mueller Hinton agar plates (90 mm diameter) were seeded with bacterial suspensions by initially swabbing the center of plate then moving outward towards the edge. The plate was swabbed a second time, perpendicular to the orientation of the first swab. To assess the impact of prediffusion on diameter of inhibition zones, two disks were immediately placed on one half of the plate and the plate was incubated for 3 hours at room temperature. After 3 hours, two additional disks were placed on the other half of the plate then the plate was incubated overnight at 37° C. Zone diameters were measured with a ruler and reported in millimeters.
Oritavancin powder was dissolved in freshly-prepared solutions of the indicated excipients at concentrations of 0.625, 1.25, 2.5, 5, and 10 mg/ml (adjusted for potency based on lot 875561L00 purity of 83.1%) by vortexing for a minimum of 5 minutes. Oritavancin solutions in the various excipients, while not visually clear, were free from any apparent particulates as assessed visually. Sterile Oxoid blank disks were impregnated with 20 μl of these oritavancin solutions, resulting in oritavancin disk loads ranging from 12.5 to 200 μg. Unless indicated otherwise, disks were allowed to dry overnight at room temperature prior to use.
Bacterial suspensions from isolated colonies on overnight cation-adjusted Mueller Hinton agar plates were prepared in sterile saline and adjusted to an optical density of 0.1 at 600 nm Standard cation-adjusted Mueller Hinton agar plates (90 mm diameter) were seeded with bacterial suspensions by initially swabbing the center of plate then moving outward. Swabbing was continued at a right angle and then at an oblique angle to the first and second swabs. Disks were placed upon the seeded plates with sterile forceps. Plates were then incubated overnight at 37° C. and inhibition zone diameters were measured with a ruler and reported in millimeters.

MRSA U933237 = assay: Broth microdilution (BMD) MIC; conditions: Staphylococcus aureus, read-out: Oritavancin BMD MIC
Source text: (§1) To date, only the broth microdilution (BMD) minimal inhibitory concentration (MIC) test is a reference method accepted by the Clinical Laboratory Standards Institute (CLSI) for use in determining the susceptibility of a bacterial isolate to oritavancin (Methods for Dilution Antimicrobial Susceptibility Tests for Bacteria That Grow Aerobically; Approved Standard, CLSI document M7-A8, 8th ed. Clinical and Laboratory Standards Institute, Wayne, Pa. 2009; Performance Standards for Antimicrobial Susceptibility Testing; Eighteenth Informational Supplement, CLSI document M100-S18, 7th ed. Clinical and Laboratory Standards Institute, Wayne, Pa. 2008).

MSSA U148267 = assay: Broth microdilution (BMD) MIC; conditions: Staphylococcus aureus, read-out: Oritavancin BMD MIC
Source text: as §1

MSSA T972018 = assay: Broth microdilution (BMD) MIC; conditions: Staphylococcus aureus, read-out: Oritavancin BMD MIC
Source text: as §1

MSSA T811355 = assay: Broth microdilution (BMD) MIC; conditions: Staphylococcus aureus, read-out: Oritavancin BMD MIC
Source text: as §1

MSSA ATCC 29213 [2] = assay: Broth microdilution (BMD) MIC; conditions: Staphylococcus aureus, read-out: Oritavancin BMD MIC
Source text: as §1

MRSA NRS121-ORI^RS = assay: Broth microdilution (BMD) MIC; conditions: Staphylococcus aureus; MRSA NRS121-ORI^RS (oritavancin reduced-susceptibility isolate)
Source text: as §1

MRSA ATCC 33591 = assay: Broth microdilution (BMD) MIC; conditions: Staphylococcus aureus, read-out: Oritavancin BMD MIC
Source text: as §1

MRSA T998528 = assay: Broth microdilution (BMD) MIC; conditions: Staphylococcus aureus, read-out: Oritavancin BMD MIC
Source text: as §1

VISA Mu50 (ATCC 700699) = assay: Broth microdilution (BMD) MIC; conditions: Staphylococcus aureus; VISA ATCC 700699 (Mu50); read-out: Oritavancin BMD MIC
Source text: as §1

MRSA V257345 = assay: Broth microdilution (BMD) MIC; conditions: Staphylococcus aureus, read-out: Oritavancin BMD MIC
Source text: as §1

MRSA NRS123 = assay: Broth microdilution (BMD) MIC; conditions: Staphylococcus aureus, read-out: Oritavancin BMD MIC
Source text: as §1

MSSA Q141066 = assay: Broth microdilution (BMD) MIC; conditions: Staphylococcus aureus, read-out: Oritavancin BMD MIC
Source text: as §1

MRSA V406957 = assay: Broth microdilution (BMD) MIC; conditions: Staphylococcus aureus, read-out: Oritavancin BMD MIC
Source text: as §1

MSSA U781969 = assay: Broth microdilution (BMD) MIC; conditions: Staphylococcus aureus, read-out: Oritavancin BMD MIC
Source text: as §1

hVISA NRS36 = assay: Broth microdilution (BMD) MIC; conditions: Staphylococcus aureus, read-out: Oritavancin BMD MIC
Source text: as §1

MSSA U933236 = assay: Broth microdilution (BMD) MIC; conditions: Staphylococcus aureus, read-out: Oritavancin BMD MIC
Source text: as §1

MRSA Q670505 = assay: Broth microdilution (BMD) MIC; conditions: Staphylococcus aureus, read-out: Oritavancin BMD MIC
Source text: as §1

MRSA U206056 = assay: Broth microdilution (BMD) MIC; conditions: Staphylococcus aureus, read-out: Oritavancin BMD MIC
Source text: as §1

VISA NRS3 = assay: Broth microdilution (BMD) MIC; conditions: Staphylococcus aureus, read-out: Oritavancin BMD MIC
Source text: as §1

MSSA S815247 = assay: Broth microdilution (BMD) MIC; conditions: Staphylococcus aureus, read-out: Oritavancin BMD MIC
Source text: as §1

hVISA NRS2 = assay: Broth microdilution (BMD) MIC; conditions: Staphylococcus aureus, read-out: Oritavancin BMD MIC
Source text: as §1

MRSA U784439 = assay: Broth microdilution (BMD) MIC; conditions: Staphylococcus aureus, read-out: Oritavancin BMD MIC
Source text: as §1

MRSA Q670607 = assay: Broth microdilution (BMD) MIC; conditions: Staphylococcus aureus, read-out: Oritavancin BMD MIC
Source text: as §1

MSSA V406985 = assay: Broth microdilution (BMD) MIC; conditions: Staphylococcus aureus, read-out: Oritavancin BMD MIC
Source text: as §1

Question: With `CN[C@H](CC(C)C)C(=O)N[C@H]1C(=O)N[C@@H](CC(N)=O)C(=O)N[C@H]2C(=O)N[C@H]3C(=O)N[C@H](C(=O)N[C@H](C(=O)O)c4cc(O)cc(O)c4-c4cc3ccc4O)[C@H](O[C@H]3C[C@](C)(N)[C@@H](O)[C@H](C)O3)c3ccc(c(Cl)c3)Oc3cc2cc(c3O[C@@H]2O[C@H](CO)[C@@H](O)[C@H](O)[C@H]2O[C@H]2C[C@](C)(NCc3ccc(-c4ccc(Cl)cc4)cc3)[C@@H](O)[C@H](C)O2)Oc2ccc(cc2Cl)[C@H]1O` [oritavancin, N-(4-(4-chlorophenyl)benzyl)A82846B] as the compound, how does the zone of inhibition at 360 µg/disc (MSSA ATCC 29213 [1]; 336 h, ATCC 29213, Experiment 1, disks stored 14 days, no prediffusion) read?
Answer: 15.8 ± 0.4 mm

Question: And the zone of inhibition at 25 µg/disc (MSSA ATCC 29213 [1]; ATCC 29213, 25 μg (1.25 mg/ml) in 4% P80/Span 80 (1:1), dried overnight, read-out: Inhibition zone diameter)?
Answer: 24 mm

Question: What about the zone of inhibition at 360 µg/disc (MSSA ATCC 29213 [1]; ATCC 29213, Average, no prediffusion) of the same compound?
Answer: 15.8 ± 0.4 mm

Question: What about the zone of inhibition at 360 µg/disc (MSSA ATCC 29213 [1]; ATCC 29213, Average, prediffusion) of the same compound?
Answer: 18.3 ± 0.4 mm

Question: And the zone of inhibition at 360 µg/disc (MSSA ATCC 29213 [1]; ATCC 29213, Experiment 1, disks stored 14 days, 3 h prediffusion at room temperature)?
Answer: 18.3 ± 0.4 mm

Question: And the zone of inhibition at 180 µg/disc (MSSA ATCC 29213 [1]; 0% P80 in CAMHA, no prediffusion)?
Answer: 15.3 mm

Question: And the zone of inhibition at 180 µg/disc (MSSA ATCC 29213 [1]; 0% P80 in CAMHA, prediffusion)?
Answer: 18.3 mm

Question: What about the zone of inhibition at 180 µg/disc (MSSA ATCC 29213 [1]; 1% P80 in CAMHA, no prediffusion) of the same compound?
Answer: 15.3 mm

Question: What about the zone of inhibition at 180 µg/disc (MSSA ATCC 29213 [1]; 1% P80 in CAMHA, prediffusion) of the same compound?
Answer: 18 mm

Question: And the MIC (MRSA U933237)?
Answer: 0.12 mg/L (≈ 0.0669 µM)

Question: What about the MIC (MSSA U148267) of the same compound?
Answer: 0.015 mg/L (≈ 0.00837 µM)

Question: What about the MIC (MSSA T972018) of the same compound?
Answer: 0.5 mg/L (≈ 0.279 µM)

Question: What about the MIC (MSSA T811355) of the same compound?
Answer: 0.03 mg/L (≈ 0.0167 µM)

Question: And the MIC (MSSA ATCC 29213 [2])?
Answer: 0.06 mg/L (≈ 0.0335 µM)

Question: What about the MIC (MRSA NRS121-ORI^RS) of the same compound?
Answer: 0.5 mg/L (≈ 0.279 µM)

Question: What about the MIC (MRSA ATCC 33591) of the same compound?
Answer: 0.06 mg/L (≈ 0.0335 µM)

Question: What about the MIC (MRSA T998528) of the same compound?
Answer: 0.015 mg/L (≈ 0.00837 µM)

Question: What about the MIC (VISA Mu50 (ATCC 700699)) of the same compound?
Answer: 1 mg/L (≈ 0.558 µM)

Question: What about the MIC (MRSA V257345) of the same compound?
Answer: 0.12 mg/L (≈ 0.0669 µM)

Question: And the MIC (MRSA NRS123)?
Answer: 0.03 mg/L (≈ 0.0167 µM)

Question: And the MIC (MSSA Q141066)?
Answer: 0.03 mg/L (≈ 0.0167 µM)

Question: And the MIC (MRSA V406957)?
Answer: 0.12 mg/L (≈ 0.0669 µM)

Question: And the MIC (MSSA U781969)?
Answer: 0.03 mg/L (≈ 0.0167 µM)

Question: And the MIC (hVISA NRS36)?
Answer: 1 mg/L (≈ 0.558 µM)

Question: And the MIC (MSSA U933236)?
Answer: 0.06 mg/L (≈ 0.0335 µM)

Question: What about the MIC (MRSA Q670505) of the same compound?
Answer: 0.25 mg/L (≈ 0.139 µM)

Question: And the MIC (MRSA U206056)?
Answer: 0.25 mg/L (≈ 0.139 µM)

Question: And the MIC (VISA NRS3)?
Answer: 1 mg/L (≈ 0.558 µM)

Question: What about the MIC (MSSA S815247) of the same compound?
Answer: 0.015 mg/L (≈ 0.00837 µM)

Question: And the MIC (hVISA NRS2)?
Answer: 0.25 mg/L (≈ 0.139 µM)

Question: What about the MIC (MRSA U784439) of the same compound?
Answer: 0.03 mg/L (≈ 0.0167 µM)

Question: And the MIC (MRSA Q670607)?
Answer: 0.03 mg/L (≈ 0.0167 µM)

Question: And the MIC (MSSA V406985)?
Answer: 0.12 mg/L (≈ 0.0669 µM)

— US8815535B2, “Disk diffusion assay for oritavancin” (The Medicines Company, priority 2011, dated 2014)
